Read-outs that look alike come from different tables or passages of the source.
Experiments:
HIV in H9 lymphocyte = settings: cited from earlier work
[1] = tested on: FHR-2, an HIV-1 strain resistant to DSB (2); experiment: microbe, parasite or virus in culture; type: cell-based
Source text: (§1) NL4-3 is a T-cell adapted HIV-1 strain, a wild type virus; PI—R is HIV-1M46I/L63P/V82P/I84V, an HIV-1 strain resistant to multiple protease inhibitors; and FHR-2 is an HIV-1 strain resistant to DSB (2).

[2] = tested on: NL4-3, a T-cell adapted HIV-1 strain, X4 wild type virus; experiment: microbe, parasite or virus in culture; type: cell-based
Source text: as §1

MT-4 cells = experiment: Cell growth inhibition (cytotoxicity) of uninfected cells; type: cell-based; settings: table title: MT-4 cells; uninfected H9 cell growth; read-out: IC50 (concentration that inhibits uninfected cell growth by 50%)
HIV fusion = experiment: Anti-HIV fusion activity (preliminary, data not shown); type: cell-based; settings: preliminary results
Source text: as §1

[3] = tested on: PI-R, HIV-1M46I/L63P/V82P/I84V, resistant to multiple protease inhibitors; experiment: microbe, parasite or virus in culture; type: cell-based
Source text: as §1

[4] = Cell growth inhibition (cytotoxicity) of uninfected cells; type: cell-based; settings: human, uninfected MT-4 cells; table title: MT-4 cells; uninfected H9 cell growth; read-out: IC50 (concentration that inhibits uninfected cell growth by 50%)
[5] = MT-4 cells, DSB-resistant HIV-1 strain, — = no suppression at 5 μM, read-out: EC50, FHR-2 (concentration that inhibits viral replication by 50%)
[6] = MT-4 cells, NL4-3 wild type HIV-1 strain, read-out: EC50, NL4-3 (concentration that inhibits viral replication by 50%)
[7] = MT-4 cells, multi-protease-inhibitor resistant HIV-1 strain, read-out: EC50, PI-R (concentration that inhibits viral replication by 50%)

Row | Structure (SMILES) | EC50, anti-HIV activity (HIV in H9 lymphocyte) | EC50 [1, 5] | EC50 [2, 6] | IC50 (MT-4 cells) | anti-HIV fusion activity (HIV fusion) | EC50 [3, 7] | EC50 ([1]; Human immunodeficiency virus 1, MT4, read-out: EC50, FHR-2 (concentration that inhibits viral replication by 50%)) | EC50 ([3]; Human immunodeficiency virus 1, MT4, read-out: EC50, PI-R (concentration that inhibits viral replication by 50%)) | EC50 ([2]; Human immunodeficiency virus 1, NL43, MT4, read-out: EC50, NL4-3 (concentration that inhibits viral replication by 50%)) | IC50 [4]
1 | CC1(C)C=C2[C@H]3CC[C@@H]4[C@@]5(C)CCC(=O)C(C)(C)[C@@H]5CC[C@@]4(C)[C@]3(C)CC[C@@]2(C(=O)O)CC1 [moronic acid (3), moronic acid] | < 0.1 µg/mL |  |  |  |  |  |  |  |  | 
2 | Cc1cn([C@H]2C[C@H](N=[N+]=[N-])[C@@H](CO)O2)c(=O)[nH]c1=O [AZT, reference compound] |  | 190 nM | 13 nM | > 37500 nM |  |  |  |  |  | 
3 | CC(C)C[C@H](NC(=O)[C@]12CCC(C)(C)C=C1[C@H]1CC[C@@H]3[C@@]4(C)CC[C@H](OC(=O)CC(C)(C)C(=O)O)C(C)(C)[C@@H]4CC[C@@]3(C)[C@]1(C)CC2)C(=O)O [Compound 8, N-[3β-(3′,3′-Dimethylsuccinoxy)olean-18-en-28-oyl]-L-leucine] |  | 130 nM | 5.7 nM | > 14300 nM | exhibit anti-HIV fusion activity | 21 nM |  |  |  | 
4 | CC(C)CC(CO)NC(=O)[C@]12CCC(C)(C)C=C1[C@H]1CC[C@@H]3[C@@]4(C)CC[C@H](OC(=O)CC(C)(C)C(=O)O)C(C)(C)[C@@H]4CC[C@@]3(C)[C@]1(C)CC2 (stereo partly drawn) [Compound 7, N-[3β-(3′,3′-Dimethylsuccinoxy)olean-18-en-28-oyl]-(1-hydroxy-methyl-3-methyl-butyl)-amide] |  | 2780 nM | 45 nM | > 14600 nM | exhibit anti-HIV fusion activity | 88 nM |  |  |  | 
5 | C=C(C)[C@@H]1CC[C@]2(C(=O)O)CC[C@]3(C)[C@H](CC[C@@H]4[C@@]5(C)CC[C@H](OC(=O)CC(C)(C)C(=O)O)C(C)(C)[C@@H]5CC[C@]43C)[C@@H]12 [DSB (2), 3-O-(3′,3′-dimethylsuccinyl)-betulinic acid, reference compound] |  |  |  |  |  |  | > 5000 nM | 430 nM | 96 nM | > 5000 nM
